Measured values taken from the NIST ThermoML archive (doi:10.1021/acs.jced.5b00941).
Numbers after ± are expanded uncertainties.

Assay: mn = molality of the nth substance listed, in mol/kg
Conditions: 100 kPa, Liquid; for viscosity: Falling or rolling sphere viscometry; for mass density: Vibrating tube method

O=C(O[C@@H]1Cc2c(O)cc(O)cc2O[C@@H]1c1cc(O)c(O)c(O)c1)c1cc(O)c(O)c(O)c1 + O
Conditions | mass density, 288.15 K [kg/m3] | mass density, 293.15 K [kg/m3] | mass density, 298.15 K [kg/m3] | mass density, 303.15 K [kg/m3] | mass density, 308.15 K [kg/m3] | viscosity, 288.15 K [mPa·s] | viscosity, 293.15 K [mPa·s] | viscosity, 298.15 K [mPa·s] | viscosity, 303.15 K [mPa·s] | viscosity, 308.15 K [mPa·s]
m1 = 0.0099 | 1000.71 ± 1 | 999.804 ± 1 | 998.637 ± 1 | 997.228 ± 1 | 995.598 ± 1 | 1.148 ± 0.014 | 1.014 ± 0.013 | 0.906 ± 0.011 | 0.815 ± 0.01 | 0.739 ± 0.009
m1 = 0.02 | 1002.36 ± 1 | 1001.44 ± 1 | 1000.26 ± 1 | 998.831 ± 1 | 997.195 ± 1 | 1.158 ± 0.014 | 1.021 ± 0.013 | 0.911 ± 0.011 | 0.82 ± 0.01 | 0.744 ± 0.009
m1 = 0.0298 | 1003.97 ± 1 | 1003.04 ± 1 | 1001.83 ± 1 | 1000.39 ± 1 | 998.752 ± 1 | 1.171 ± 0.015 | 1.034 ± 0.013 | 0.92 ± 0.011 | 0.827 ± 0.01 | 0.75 ± 0.009
m1 = 0.0399 | 1005.63 ± 1 | 1004.68 ± 1 | 1003.47 ± 1 | 1002.01 ± 1 | 1000.36 ± 1 | 1.187 ± 0.015 | 1.049 ± 0.013 | 0.934 ± 0.012 | 0.838 ± 0.01 | 0.759 ± 0.009
m1 = 0.0499 | 1007.26 ± 1 | 1006.29 ± 1 | 1005.05 ± 1 | 1003.6 ± 1 | 1001.92 ± 1 | 1.203 ± 0.015 | 1.062 ± 0.013 | 0.945 ± 0.012 | 0.849 ± 0.011 | 0.769 ± 0.01
m1 = 0.0601 | 1008.94 ± 1 | 1007.93 ± 1 | 1006.69 ± 1 | 1005.22 ± 1 | 1003.53 ± 1 | 1.222 ± 0.015 | 1.079 ± 0.014 | 0.959 ± 0.012 | 0.86 ± 0.011 | 0.778 ± 0.01
